From US20160030369A1, “FKBP52 TARGETING AGENT PHARMACEUTICAL COMPOSITIONS” (THE UNITED STATES OF AMERICA AS REPRESENTED BY THE …, priority 2013, published 2016)
Values after ≈ are worked out from the molar mass of the structure shown. Where two headings read alike, the source gives them in different places.

Tests used:
[1] = Freeze-thaw stability of MJC13 in rat plasma and rat urine; format: in vitro ADME
Method: Freeze-thaw stability of MJC13 in rat plasma and rat urine were evaluated by analyzing QC samples at low, medium, and high concentrations. Plasma samples that were exposed for three cycles of freezing (at −20° C.) and thawing (at room temperature) were compared with freshly prepared samples at the same concentrations.
(§1) The stability of MJC13 in rat urine was conducted in the same fashion as in rat plasma.

[2] = Processed sample (autosampler) stability of MJC13 rat plasma and urine extracts; format: physicochemical; settings: for average recoveries: acetonitrile with IS; for recoveries: acetonitrile without IS
Method: Processed sample stability (on-instrument or autosampler stability) of MJC13 rat plasma extracts and rat urine extracts were evaluated by analyzing QC samples at low, medium, and high concentrations. Two sets of plasma samples were extracted with acetonitrile with and without IS, respectively. The plasma extracts were kept in the autosampler for 2, 4, or 6 hours, before injecting into the LC-MS/MS. All of those samples were compared with freshly prepared samples at the same concentrations.

[3] = Lipophilicity (log P) between water and 1-octanol, shake-flask; format: physicochemical; settings: 1-octanol/water, room temperature, read-out: experimental log P
Method: The lipophilicity of MJC13 was determined as the logarithm of partition coefficient (log P) of the solute between water and 1-octanol. Equal volumes of two-phase solution (water and 1-octanol) was mixed well in a capped glass bottle and then placed in a shaker for 24 hours to make sure that saturation equilibrium had been achieved. MJC13 (1 mL) dissolved in the two-phase solution was added the bottle. Then, MJC13 was partitioned between aqueous and 1-octanol for 72 hours at room temperature using the shake-flask method. The mixture from the bottle was centrifuged at 3000 rpm for 10 minutes and subsequently filtered through a 0.22 μm ultrafiltration unit, and then moved to a separatory funnel for phase separation. The aqueous and 1-octanol phases were analyzed by LC-MS/MS to determine the concentration of drug dissolved. Experiments were conducted in triplicate. The log P was calculated according to Eq. 3: […]
where Co and Cw represent the concentrations of MJC13 in 1-octanol and aqueous phase, respectively.

[4] = Solubility of MJC13 in 50% (w/v) HP-β-CD aqueous solution; format: physicochemical
Method: An excess amount of MJC13 was added to a sealed glass vial (2 ml) containing saturated (50% w/v) 2-hydroxypropyl-β-cyclodextrin (HP-β-CD) aqueous solution. The vial was shaken at room temperature for 72 hours. Thereafter, the solution was centrifuged, filtered through a 0.2 μm membrane and analyzed for MJC13 by the LC/MS/MS method of Example 1. Experiments were conducted in triplicate. […] It is believed that the resulting pharmaceutical composition has improved biocompatibility because it lacks TWEEN 80 (polysorbate 80).

AR = settings: cellular models of prostate cancer, micromolar concentrations; cited from earlier work
[5] = Rat plasma protein binding by ultrafiltration; format: in vitro ADME; settings: 37° C.
Method: In vitro rat plasma samples of MJC13 were prepared by diluting the stock solution with acetonitrile and spiking in rat plasma at five different concentrations: 100, 500, 1000, 2000 and 5000 ng/mL to approximate the plasma concentrations of MJC13 in rats after 2 mg/kg intravenous bolus dosing. The plasma was incubated at 37° C. for 1 hours before being transferred to Amicon Ultra-0.5 mL Centrifugal Filters (EMD Millipore Corporation, Billerica, Mass.) for ultrafiltration at 3000 rpm for 10 minutes. Filtrate and nonfiltrate concentrations were determined by LC-MS/MS. The fraction unbound, fu, was determined as Eq. 4:
where Cu is the unbound concentration and Ct is the total concentration.

[6] = Solubility of MJC13 in various solvents, shake-flask method; format: physicochemical; settings: thermodynamic from solid
Method: The solubility of MJC13 was evalulated. Because there is no ionizable functional group on the molecular structure, the solubility of MJC13 was expected to be low in water and barely affected by pH. In this work, the solubility of MJC13 in water, ethanol, propylene glycol, polyethylene glycol 400 (PEG 400), polysorbate 80 (Tween 80), olive oil, peanut oil, soybean oil, CAPTEX 200 and LABRAFAC Lipophile WL1349 was determined by a shake-flask method. Briefly, an excess amount of MJC13 was added to each capped glass bottle containing the selected vehicle and mixed for 48 hours at room temperature using a reciprocating shaker. The samples were centrifuged at 3000 rpm for 10 minutes and were subsequently filtered through a 0.22 μm ultrafiltration unit. The filtrates were analyzed by LC/MS/MS to determine the concentration of drug dissolved. The experiments were conducted in triplicate.

[7] = as above; format: physicochemical; settings: DMSO, organic solvent or mixture
[8] = Short-term (bench-top) and frozen storage stability of MJC13 in rat plasma and rat urine; format: in vitro ADME
Method: Short-term stability (bench-top stability) of MJC13 in rat plasma and rat urine were evaluated by analyzing triplicates of QC samples at low, medium, and high concentrations. Plasma samples were removed from frozen storage (−20° C.) and remained on the bench-top for 2, 4, or 6 hours. All of those samples were compared with freshly prepared samples at the same concentrations. […] Another set of plasma samples were stored at −80° C. for 7 days.
as §1

[9] = Pharmacokinetics of MJC13 (Formulation PT4) after IV bolus in rats, three-compartment model; format: in vivo, Sprague-Dawley rats; settings: single IV bolus 2 mg/kg, Formulation PT4, n = 8; for half-life / Vd: iv, 2 mg/kg
Method: To further determine the fate of MJC13 in live animals and verify the applicability of the developed LC/MS/MS assay and formulations, pharmacokinetic studies were performed in rats. The animal experiment and protocol were reviewed and approved by the Institutional Animal Care and Use Committee at Texas Southern University. The jugular veins of eight male adult Sprague-Dawley rats (358˜377 g) were cannulated under anesthesia using a cocktail of ketamine:acetopromazine:xylazine (50:3.3:3.3 mg/kg) the day before the study. On the day of study, Formulation PT4, which includes PEG 400 and Tween 80 (1:1, v/v) with a MJC13 concentration of 7.5 mg/mL, was diluted to 1 mg/mL by normal saline. Blood and urine samples were collected from each rat right before dosing. Each rat was given a 2 mg/kg intravenous (IV) bolus dose of MJC13. Blood sample collecting tubes were heparinized and dried. In order to avoid any possible contamination, after dosing for each rat, the foremost part of each tubing associated with the needle for dosing was cut off, and then 0.5 mL of normal saline containing 20 U/mL heparin was injected to flush the tubing. Blood samples (250 μL; n=8) were collected at 5, 10, 15, 30 minutes, 1, 2, 4, 6, 8, 12, 24, 48 and 72 hours post injection, respectively. The blood samples were centrifuged at 13,000 rpm for 10 minutes and the supernatants (plasma) were obtained and immediately stored at −80° C. until analysis. Urine samples (n=4) were collected periodically, including 0-2, 2-4, 4-8, 8-12, 12-24, 24-48 and 48-72 hours post injection. After measurement of the overall urinary volume of each interval, urine samples were immediately stored at −80° C. until analysis. Within 48 hours, those plasma and urine samples were analyzed by the LC/MS/MS method of Example 1 to obtain MJC13 concentrations. After analysis, the plasma concentrations and cumulative urinary excretions of MJC13 were presented as the mean value with standard deviation (SD) and plotted against time by SigmaPlot 12.3 (Systat Software, San Jose, Calif.). (FIGS. 5, 6, 7A, and 7B).
The intravenous drug plasma concentration-time data were pharmacokinetically analyzed separately for each rat by compartmental modeling using the microcomputer-based nonlinear regression program, WINNONLIN software 5.2.1 (Pharsight Corporation, Mountain View, Calif.). A three-compartment model was provided which best described the fit for the IV bolus administration based on the appearance of the observed and predicted concentrations, the reduction in the sums of squares, and the Akaike's information criterion (Yamaoka et al., J. Pharmacokinet Biopharm., 6(2): 165-75 (1978)). The three-compartment model is described by Eq. 5:
Ct=A·e^−αt+B·e^−βt+C·e^−γt, Eq. 5
where A, B and C are the coefficients, α is the α-phase hybrid rate constant, β is β-phase hybrid rate constant, γ is the γ-phase hybrid rate constant, and Ct is the plasma concentration of MJC13 at time t. The pharmacokinetic parameters thus derived were the systemic or plasma clearance (Cl), the volume of distribution (Vd), the total area under the plasma drug concentration-time curve (AUC), and half-lives (T1/2).

[10] = rat plasma extract, autosampler 2 hours
[11] = rat plasma extract, autosampler 4 hours
[12] = rat plasma extract, autosampler 6 hours
[13] = rat urine extract, autosampler 2 hours
[14] = rat urine extract, autosampler 4 hours
[15] = rat urine extract, autosampler 6 hours

average MJC13 amount remaining ([1]; rat plasma, three freeze (−20° C.)-thaw (room temperature) cycles): 96.7±2.0%
average MJC13 amount remaining ([1]; rat urine, three freeze-thaw cycles): 97.5±2.4%
average recoveries [2, 10]: 97.6±1.3%
average recoveries [2, 11]: 98.3±1.5%
average recoveries [2, 12]: 96.7±0.7%
recoveries [2, 10]: 96.1±1.3%
recoveries [2, 11]: 97.6±1.1%
recoveries [2, 12]: 97.7±2.4%
average recoveries [2, 13]: 95.8±3.2%
average recoveries [2, 14]: 98.6±2.5%
average recoveries [2, 15]: 97.9±1.7%
recoveries [2, 13]: 97.4±2.2%
recoveries [2, 14]: 97.1±1.9%
recoveries [2, 15]: 96.4±3.3%
logP at 72 h [3]: 6.49 ± 0.37
solubility at 72 h ([4]; 50% (w/v) HP-β-CD aqueous solution, aqueous with cosolvent or surfactant or cyclodextrin, thermodynamic from solid, room temperature, 72 hours): 2.6 ± 0.3 mg/mL (≈ 9.55 mM)
increase of solubility compared to MJC13 itself in pure water ([4]; 50% (w/v) HP-β-CD solution vs pure water): 10,000 fold
fraction bound at 1 h, 100 ng/mL ([5]; 100 ng/mL): 0.981 ± 0.015
fraction bound at 1 h, 500 ng/mL ([5]; 500 ng/mL): 0.976 ± 0.027
fraction bound at 1 h, 1000 ng/mL ([5]; 1000 ng/mL): 0.996 ± 0.017
fraction bound at 1 h, 2000 ng/mL ([5]; 2000 ng/mL): 0.972 ± 0.028
fraction bound at 1 h, 5000 ng/mL ([5]; 5000 ng/mL): 0.979 ± 0.024
solubility at 48 h ([6]; Captex 200, oil or lipid, Captex ® 200, room temperature, read-out: Solubility): 31.9 ± 1.6 mg/mL (≈ 117 mM)
solubility at 48 h ([6]; Labrafac Lipophile WL1349, oil or lipid, Labrafac ™ Lipophile WL1349, room temperature, read-out: Solubility): 24 ± 1.1 mg/mL (≈ 88.2 mM)
solubility at 48 h ([6]; PEG 400, organic solvent or mixture, PEG 400, room temperature, read-out: Solubility): 23 ± 0.7 mg/mL (≈ 84.5 mM)
solubility at 48 h ([6]; ethanol, organic solvent or mixture, Ethanol, room temperature, read-out: Solubility): 35.6 ± 1.8 mg/mL (≈ 131 mM)
solubility at 48 h ([6]; olive oil, oil or lipid, Olive oil, room temperature, read-out: Solubility): 16.2 ± 0.3 mg/mL (≈ 59.5 mM)
solubility at 48 h ([6]; peanut oil, oil or lipid, Peanut oil, room temperature, read-out: Solubility): 15.6 ± 0.4 mg/mL (≈ 57.3 mM)
solubility at 48 h ([6]; polysorbate 80 (Tween 80), organic solvent or mixture, Polysorbate 80, room temperature, read-out: Solubility): 28.2 ± 0.7 mg/mL (≈ 104 mM)
solubility at 48 h ([6]; propylene glycol, organic solvent or mixture, Propylene glycol, room temperature, read-out: Solubility): 5.7 ± 0.2 mg/mL (≈ 20.9 mM)
solubility at 48 h ([6]; soybean oil, oil or lipid, Soybean oil, room temperature, read-out: Solubility): 17.3 ± 0.5 mg/mL (≈ 63.6 mM)
solubility at 48 h ([6]; water, Water, room temperature, read-out: Solubility): 0.00028 mg/mL (≈ 0.00103 mM)
solubility at 48 h ([6]; water, water, room temperature, read-out: water solubility): 0.00028 mg/mL (≈ 0.00103 mM)
solubility [7]: > 100 mg/mL
average MJC13 amount remaining ([8]; rat plasma, bench-top, 2 hours): 98.6±1.7%
average MJC13 amount remaining ([8]; rat plasma, bench-top, 4 hours): 97.6±2.0%
average MJC13 amount remaining ([8]; rat plasma, bench-top, 6 hours): 97.4±1.2%
average recoveries ([8]; rat plasma, stored at −80° C. for 7 days): 96.4±1.4%
average MJC13 amount remaining ([8]; rat urine, bench-top, 2 hours): 97.9±2.5%
average MJC13 amount remaining ([8]; rat urine, bench-top, 4 hours): 99.1±1.9%
average MJC13 amount remaining ([8]; rat urine, bench-top, 6 hours): 96.7±2.8%
average MJC13 amount remaining ([8]; rat urine, stored at −80° C. for 7 days): 95.9±2.7%
clearance ([9]; male, Sprague-Dawley, plasma, rat, read-out: Cl (total body clearance)): 6.04 ± 2.43 mL/min/kg
half-life ([9]; male, Sprague-Dawley, rat, plasma, rat plasma, read-out: T1/2α (elimination half-life of α-phase)): 0.094 ± 0.0217 h
half-life ([9]; male, Sprague-Dawley, rat, plasma, rat plasma, read-out: T1/2β (elimination half-life of β-phase)): 2.1 ± 0.317 h
half-life ([9]; male, Sprague-Dawley, rat, plasma, rat plasma, read-out: T1/2γ (elimination half-life of γ-phase)): 32.3 ± 12.1 h
Vd ([9]; male, Sprague-Dawley, rat, plasma, rat, read-out: V1 (volume of distribution of central compartment)): 0.744 ± 0.074 L/kg
Vd ([9]; male, Sprague-Dawley, rat, plasma, rat, read-out: Vss (volume of distribution at steady state)): 10.8 ± 2.13 L/kg
AUC(0-inf) ([9]; male, Sprague-Dawley, rat plasma, read-out: AUC0-∞ (area under curve from time zero to infinity) (converted)): 6640 ng·h/mL
Cmax ([9]; male, Sprague-Dawley, rat plasma, read-out: Cmax (maximum concentration)): 2710 ± 251 ng/mL
A (coefficient of α-phase) ([9]; rat plasma): 2124 ± 222 ng/mL
B (coefficient of β-phase) ([9]; rat plasma): >483 ± 126 ng/mL
C (coefficient of γ-phase) ([9]; rat plasma): 101 ± 36 ng/mL
V2 (volume of distribution of first peripheral compartment) ([9]; rat): 2.038 ± 0.646 L/kg
V3 (volume of distribution of second peripheral compartment) ([9]; rat): 8.068 ± 1.6 L/kg
Compound: O=C(Nc1cccc(Cl)c1Cl)C1CCCCC1 [MJC13]
block of AR-dependent gene expression (AR): effectively block AR-dependent gene expression
